Laboratory results published in patent US12599578B2, “Compositions comprising enzyme-cleavable prodrugs and controlled release nafamostat and methods of use thereof” (Ensysce Biosciences Inc., priority 2021, dated 2026).
Where two headings read alike, the source gives them in different places.

Assays:
[1] = doses of up to 200 mg KC-8 (80 mg oxycodone); cited from earlier work
[2] = Plasma oxycodone pharmacokinetics after oral KC-8 with or without nafamostat in rats; assay type: in vivo; settings: nafamostat co-administered with an oxycodone or hydromorphone derivative
Experimental: The drug nafamostat mesylate was added to the formulations containing the KC-8 oxycodone-derivative. In the examples described herein, the terms “nafamostat mesylate” and “nafamostat” are used interchangeably.
Formulations containing both KC-8 and optionally nafamostat were administered orally to rats. The KC-8 dose was 5 mg/kg and the nafamostat concentration was 0, 0.1, 0.5, or 1 mg/kg. Plasma concentrations of active oxycodone were measured at various time intervals over 24 hours after administration.
In particular, the rats received 50 mg/kg of KC-8 and 0, 1, 5, or 10 mg/kg of nafamostat. With zero nafamostat, blood plasma concentration experienced a maximum of about 22 ng/ml at about 2 hours, wherein the concentration rapidly descended thereafter. In alignment with the data of FIG. 2, higher concentrations of nafamostat reduced the peak concentration to about 3 ng/ml at about 8 hours.

[3] = Blood hydromorphone after 1, 3, 6 or 10 pills of PF329 with or without nafamostat in rats; assay type: in vivo; settings: rats, 1, 3, 6 or 10 pills of PF329 containing nafamostat (FIG. 5)
Excerpt: The rat experiments were repeated with a derivative of hydromorphone (referred to herein as PF329), which is another known pain medication. FIGS. 4 and 5 show the blood concentration of active hydromorphone (HM) after the administration of 1, 3, 6, or 10 pills, either without or with nafamostat.

[4] = 200 mg nafamostat; cited from earlier work

SMILES	safety and tolerability [1]	effect on maximum concentration of active drug in blood plasma [2]	change of hydromorphone blood concentration on administering more pills [3]	safety and tolerability [4]
COc1ccc2c3c1O[C@H]1C(OC(=O)N(C)CC(C)(C)CNC(=O)[C@H](CCCNC(=N)N)NC(=O)CNC(=O)CC(=O)O)=CC[C@@]4(O)[C@@H](C2)N(C)CC[C@]314 [KC-8, N-1-[3-(oxycodone-6-enol-carbonyl-methyl-amino)-2,2-dimethyl-propylamine]-arginine-glycine-malonic acid]	safe and well tolerated			
N=C(N)c1ccc2cc(OC(=O)c3ccc(N=C(N)N)cc3)ccc2c1 [nafamostat, 6-carbamimidoylnaphthalen-2-yl 4-(diaminomethyleneamino)benzoate]		significantly reduced the maximum concentration of active drug in blood plasma	little increase	safe and well tolerated
